Values joined by “and” are separate entries in the source; they are usually repeats but may differ in a detail not shown here. Equal entries are not always repeated. Structures can show the parent of a compound that is named as a salt. Where two headings read alike, the source gives them in different places.
Tests used:
[1] = system: human leukocytes (basophils); assay: Inhibition of IgE-mediated histamine release from human leukocytes (basophils), Procedure A; format: cell-based; details: Leukocyte, 1 h, read-out: In Vitro Inhibition of Histamine Release IC50 (μM) Procedure A
Experimental: A. Procedure for Determining Inhibition of Histamine Release from Human Leukocytes (Basophils)
Separation of Leukocytes: A modification of the method of L. Lichtenstein and A. Osler, J. Exp. Med. 120, 507 (1964) is used. Heparinized human blood (80-100 ml) is mixed with 20 ml of saline (0.2%) containing 0.6 gm of dextrose and 1.2 gm of dextran in propylene centrifuge tubes. The mixture is kept at ambient temperature for 60-90 minutes to allow the separation of erythrocytes from the platelet-leukocyte-rich supernate. The supernate is removed and centrifuged for 8 minutes at 110 ×g in cold. The leukocyte pellet is washed twice with Tris buffer and finally suspended in 150-180 ml Tris-ACM buffer at 1-2 ×10^6 cells/ml.
Reaction Mixture: The reaction is carried out in 12×75 mm plastic tubes at a total volume of 1.23 ml. The reaction medium includes 0.05 ml rabbit anti-human IgE (the antigen), 0.2 ml of the test compound in water at concentrations ranging from 10-100 μM, and 1.0 ml of the leukocyte suspension. The reaction mixture is incubated in a 37° C. shaking water bath for 60 minutes. Upon completion of the reaction, the tubes are centrifuged and the supernatants collected. The protein is removed from the supernatants by precipitation with 0.2 ml of 8% perchloric acid.
Histamine Assay: Histamine release is measured by the automated fluorometric method of W. Siraganian and W. Hook in Chapter 102 of the Manual of Clinical Immunology, 2nd Edition, edited by R. Rose and H. Friedman, published by the American Society for Microbiology, Washington, D.C., 1980. Percent inhibition is calculated as follows: [formula]
The concentration which causes a 50 percent inhibition (IC50) of histamine release is interpolated from a plot of percent inhibition versus logarithm of drug concentration.

[2] = system: rat peritoneal mast cells; assay: Inhibition of histamine release from rat peritoneal mast cells, Procedure B; format: cell-based; details: Mast cell, 1 h, read-out: In Vitro Inhibition of Histamine Release IC50 (μM) Procedure B
Experimental: B. Procedure for Determining Inhibition of Histamine Release from Rat Peritoneal Mast Cells
Harvest of Peritoneal Mast Cells: After the rats are sacrificed with ether, 20 ml of Minimum Essential Medium (MEM) containing 20 units/ml heparin is injected into the peritoneum. The abdomen is massaged for one minute and the lavage fluid collected. The peritoneal cells are centrifuged at 1800 rpm for 8 minutes in cold. After two washes with Tris A buffer, the cells are resuspended in Tris ACM buffer at 2-4×10^6 cells/ml.
Reaction mixture: The reaction is carried out in 12×75 mm plastic tubes at a total volume of 1.25 ml. The reaction mixture includes 0.5 ml (10-1000 μg) sheep anti-rat IgE or ovalbumin, 0.2 ml of the test compound in water at concentrations ranging from 10-1000 μM, 0.5 ml phosphatidylserine solution (20-60 μg to each tube), and 0.5 ml of cell suspension.
The concentration which causes a 50% inhibition (IC50) of histamine release is computed as in Part A.

guinea pig basophils = assay: Inhibition of histamine release from guinea pig basophils, Procedure C; format: cell-based; details: Cavia porcellus, 1 h, read-out: In Vitro Inhibition of Histamine Release IC50 (μM) Procedure C
Experimental: C. Procedure for Determining Inhibition of Histamine Release from Guinea Pig Basophils
1. In Vivo Sensitization: Male Hartley guinea pigs (200-300 gm) are immunized on day 0 with two 0.05 ml intradermal injections of 200 μg ovalbumin. Sensitized basophils are available between days 13-25 post-sensitization. This mode of sensitization favors IgE response.
2. Separation of Leukocytes: The method of Lett-Brown et al., Int. Arch. Allergy, Appl. Immun. 64, 241 (1981) is used. Animals are anesthetized with ether and are bled via cardiac puncture, with plastic syringes containing sufficient EDTA to provide a final concentration of 10 mM.
One part of 3% gelatin in saline at 37° C. is mixed with 2 parts of blood in a 16×150 mm tube. The cells are allowed to sediment at a 30° angle for 45 minutes in a 37° C. water bath. The leukocyte-rich plasma is collected and centrifuged at 150×g for 30 minutes at room temperature. The pelleted cells are washed in Hepes-buffered saline (HG) containing 4 mM EDTA and resuspended in Hepes-buffered saline containing […] and Ca^++ (HGCM) at 4-5×10^6 cells/ml.
3. Reaction Mixture: The reaction is carried out in 12×75 mm plastic tubes and a total volume of 1.2 ml which includes 0.5 ml of antigen, 0.2 ml of drug solution at concentrations ranging from 10-1000 μM and 0.5 ml of prewashed cell suspension. The reaction mixture is incubated in a 37° C. shaking water bath for 60 minutes. Upon completion of the reaction, the tubes are centrifuged and the supernatants collected. The protein is removed from the supernatants by precipitation with 0.2 ml of 8% perchloric acid.
4. Histamine Assay: Histamine release is measured by the automated fluorometric method of Siraganian, supra. The concentration which causes a 50 percent inhibition of histamine release is computed as in Part A.

histamine (H1) receptor = target: T1, histamine (H1) receptor (Cavia porcellus, UniProt P31389); assay: Antagonism of histamine-induced contraction of isolated guinea pig ileum; format: tissue-based; details: histamine final concentration 0.2 μg/ml, 50% reduction of contractile response, read-out: Inhibition IC50 (μM) of histamine-induced contraction
T1 construct: contraction of isolated guinea pig ileum; from tissue; host or cells: isolated guinea pig ileum
Excerpt: Certain compounds of formula I inhibit in vitro the histamine-induced contraction of isolated guinea pig ileum and are useful in warm-blooded animals for antagonizing the action of histamine at the histamine (H1) receptor. Accordingly, these compounds can be employed in a conventional manner as antihistamine agents for the treatment of allergic disorders, for example allergic rhinitis, vasomotor rhinitis, allergic conjunctivitis, hay fever, urticaria, and food allergies.
The antagonism of the effects of histamine on the contraction of isolated guinea pig ileum by the compounds of formula I can be determined by the procedure of G. Possanza, A. Bauen, and P. Stewart, Int. Arch. Allergy Appl. Immunol., 49, 289 (1975). The degree of inhibition is determined as the difference between the contraction caused by histamine (final concentration 0.2 μg/ml) alone and that seen in the presence of both histamine and the test compound. The inhibitory activity of the test compound is expressed as that concentration of the compound which causes a 50% reduction of the contractile response (IC50).

[3] = from human basophils, rabbit anti-human IgE as antigen, 60 min at 37° C., > = no response detected at highest dose indicated
[4] = from rat peritoneal mast cells, sheep anti-rat IgE or ovalbumin, 60 min at 37° C.
[5] = from guinea pig basophils (ovalbumin-sensitized), 60 min at 37° C., > = no response detected at highest dose indicated

T1 sequence (P31389 whole entry): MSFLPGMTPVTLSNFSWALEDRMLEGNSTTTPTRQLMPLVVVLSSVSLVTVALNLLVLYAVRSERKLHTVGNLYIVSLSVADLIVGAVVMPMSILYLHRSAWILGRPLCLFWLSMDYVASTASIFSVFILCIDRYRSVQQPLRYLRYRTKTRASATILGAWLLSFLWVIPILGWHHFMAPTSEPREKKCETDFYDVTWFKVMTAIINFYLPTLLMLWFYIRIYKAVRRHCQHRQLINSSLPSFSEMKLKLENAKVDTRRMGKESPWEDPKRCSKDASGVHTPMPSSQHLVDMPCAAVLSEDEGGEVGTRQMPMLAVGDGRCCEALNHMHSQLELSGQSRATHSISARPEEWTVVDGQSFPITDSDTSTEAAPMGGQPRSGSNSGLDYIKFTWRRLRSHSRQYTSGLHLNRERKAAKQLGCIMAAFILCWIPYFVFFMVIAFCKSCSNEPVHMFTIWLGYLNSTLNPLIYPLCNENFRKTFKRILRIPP

IC50 [1, 3] [µM]	IC50 [2, 4] [µM]	IC50 (histamine (H1) receptor)	Structure (SMILES)	IC50 (guinea pig basophils; [5]) [µM]	IC50 ([1]; Homo sapiens) [µM]	IC50 ([2]; Rattus norvegicus) [µM]	IC50 (guinea pig basophils) [µM]
5	3	0.06 µM	O=C(NC1CCCCC1)SCCCN1CCN(Cc2ccc(Cl)cc2)CC1 [Example 6, N-Cyclohexyl-S-{3-[4-(4-chlorobenzyl)piperazin-1-yl]propyl}thiocarbamate dihydrochloride]	20	–	–	–
5	7	0.12 µM and 0.09 µM	COc1ccc(NC(=O)SCCCN2CCN(CCc3ccc(Cl)cc3)CC2)cc1 [Example 28, N-(4-Methoxyphenyl)-S-{3-[4-(4-chlorophenethyl)piperazin-1-yl]propyl}thiocarbamate dihydrochloride]	40	–	–	–
5	2	–	CCCCc1ccc(NC(=O)SCCCN2CCN(CCCc3ccc(Cl)cc3)CC2)cc1 [Example 33, N-(4-n-Butylphenyl)-S-{3-[4-[3-(4-chlorophenyl)propyl]piperazin-1-yl]propyl}thiocarbamate dihydrochloride]	14	–	–	–
–	–	–	SCCN1CCN(Cc2ccc(Cl)cc2)CC1 [Example 36, 2-[4-(4-Chlorobenzyl)piperazin-1-yl]ethanethiol dihydrochloride]	–	3	5	> 100
